The text below walks through data of US20050032873A1, “3-Amino chroman and 2-amino tetralin derivatives” (Wyeth, priority 2003, published 2005).

Usually melting point stands for the temperature of the solid-liquid transition.

Structures can show the parent of a compound that is named as a salt.

As to `COc1cccc2c1CC(N(CCCc1c[nH]c3ccccc13)CC1CC1)CO2` (stereo not drawn) (as salt: hydrochloride) [Compound 43, N-(cyclopropylmethyl)-N-[3-(1H-indol-3-yl)propyl]-N-(5-methoxy-3,4-dihydro-2H-chromen-3-yl)amine], the melting point was 107 to 110 °C. Regarding `COc1cccc2c1CC(N[C@H]1CC[C@H](c3c[nH]c4ccc(F)cc43)CC1)CO2` (relative stereo) (as salt: hydrochloride) [Compound 181b, trans-N-[4-(5-fluoro-1H-indol-3-yl)cyclohexyl]-5-methoxychroman-3-amine], the melting point was 265 °C (dec.). For `CCCN(CCCCc1c[nH]c2ccc(F)cc12)C1COc2c(F)ccc(C(=O)NC)c2C1` (stereo not drawn) (as salt: hydrochloride) [Compound 93, 8-fluoro-3-[[4-(5-fluoro-1H-indol-3-yl)butyl](propyl)amino]-N-methylchromane-5-carboxamide], the melting point is 110 °C (dec.). The result for `CNC(=O)c1ccc(F)c2c1CC(NCCCc1c[nH]c3ccc(F)cc13)CO2` (stereo not drawn) (as salt: hydrochloride) [Compound 88, 8-fluoro-3-{[3-(5-fluoro-1H-indol-3-yl)propyl]amino}-N-methylchromane-5-carboxamide] reads 148 °C (dec.); that for `COc1cccc2c1CC(N(CCCCc1c[nH]c3ccc(F)cc13)C1CCC1)CO2` (stereo not drawn) (as salt: hydrochloride) [Compound 36, N-cyclobutyl-N-[4-(5-fluoro-1H-indol-3-yl)butyl]-N-(5-methoxy-3,4-dihydro-2H-chromen-3-yl)amine], 89 °C (dec.).

Turning to `CNC(=O)c1ccc(F)c2c1CC(N(CCc1c[nH]c3ccc(F)cc13)C1CCC1)CO2` (stereo not drawn) (as salt: hydrochloride) [Compound 87, 3-{cyclobutyl[2-(5-fluoro-1H-indol-3-yl)ethyl]amino}-8-fluoro-N-methylchromane-5-carboxamide], the melting point was 131 °C (dec.).

For the compound `COc1cccc2c(CCCN(CC3CC3)C3COc4c(F)ccc(C(N)=O)c4C3)c[nH]c12` (stereo not drawn) (as salt: hydrochloride) [Compound 103, 3-{(cyclopropylmethyl)[3-(7-methoxy-1H-indol-3-yl)propyl]amino}-8-fluorochromane-5-carboxamide], the melting point was 152 to 158 °C (dec.). Take `CCCN(CCCc1coc2ccccc12)C1COc2c(F)ccc(C(N)=O)c2C1` (stereo not drawn) (as salt: hydrochloride) [Compound 20, 3-[[3-(1-benzofuran-3-yl)propyl](propyl)amino]-8-fluorochromane-5-carboxamide]: the melting point was 114 to 118 °C (dec.). Take `NC(=O)c1ccc(F)c2c1CC(N(CCC(=O)c1c[nH]c3ccc(F)cc13)C1CCC1)CO2` (stereo not drawn) (as salt: hydrochloride) [Compound 8, 3-{cyclobutyl[3-(5-fluoro-1H-indol-3-yl)-3-oxopropyl]amino}-8-fluorochromane-5-carboxamide]: the melting point was 139 °C (dec.). The value for `CCCN(CCCCc1coc2c(OC)cccc12)C1COc2c(F)ccc(C(N)=O)c2C1` (stereo not drawn) (as salt: hydrochloride) [Compound 169, 8-fluoro-3-[[4-(7-methoxy-1-benzofuran-3-yl)butyl](propyl)amino]chromane-5-carboxamide] was 99 to 110 °C (dec.); that for `NC(=O)c1ccc(F)c2c1CC(NCCCCn1ccc3cccc(F)c31)CO2` (stereo not drawn) (as salt: hydrochloride) [Compound 188, 8-Fluoro-3-{[4-(7-fluoro-1H-indol-1-yl)butyl]amino}chromane-5-carboxamide] was 166 to 168 °C; that for `CNC(=O)c1ccc(F)c2c1CC(N(CCCc1c[nH]c3ccc(F)cc13)C1CCC1)CO2` (stereo not drawn) (as salt: hydrochloride) [Compound 59, 3-{cyclobutyl[3-(5-fluoro-1H-indol-3-yl)propyl]amino}-8-fluoro-N-methylchromane-5-carboxamide] was 132 °C (dec.).
